Assays:
Experiment in all cases: relative viability (nuclei count vs DMSO), 5 days (fraction); higher = more cells survive
[1] = compound: Nc1ncn([C@H]2C[C@H](O)[C@@H](CO)O2)c(=O)n1 [Decitabine] + Nc1nc2[nH]cc(CCc3ccc(C(=O)N[C@@H](CCC(=O)O)C(=O)O)cc3)c2c(=O)[nH]1 [Pemetrexed] (partner 0.2 µM)
Outline: (§1)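 Lung cancer cell lines in 1536-well plates got either a single drug or a fixed anchor-drug dose together with five library-drug doses (not always all listed) in √10 steps, by pin tool, on the day after seeding. Nuclei were counted after 5 days, and relative viability is the treated-to-vehicle ratio of nuclei counts. Values are medians of duplicate plates.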

[2] = compound: O=C(C[C@H]1NCCC[C@@H]1O)Cn1cnc2cc(Br)c(Cl)cc2c1=O (racemic) [Halofuginone] + Nc1ncn([C@H]2C[C@H](O)[C@@H](CO)O2)c(=O)n1 [Decitabine] (partner 2 µM)
Outline: as §1

[3] = compound: Nc1ncn([C@H]2C[C@H](O)[C@@H](CO)O2)c(=O)n1 [Decitabine] + N=C(N)NC(=N)NCCc1ccccc1 [Phenformin] (partner 250 µM)
Outline: as §1

[4] = compound: Nc1ncn([C@H]2C[C@H](O)[C@@H](CO)O2)c(=O)n1 [Decitabine] + CC(=O)Nc1cccc(-n2c(=O)n(C3CC3)c(=O)c3c(Nc4ccc(I)cc4F)n(C)c(=O)c(C)c32)c1 [Trametinib] (partner 0.02 µM)
Outline: as §1

Cell Line | relative viability ([1]; first compound 0.04 µM) | relative viability ([1]; first compound 0.1265 µM) | relative viability ([1]; first compound 0.4 µM) | relative viability ([1]; first compound 1.265 µM) | relative viability ([1]; first compound 4 µM) | relative viability ([2]; first compound 0.001 µM) | relative viability ([2]; first compound 0.003162 µM) | relative viability ([2]; first compound 0.01 µM) | relative viability ([2]; first compound 0.03162 µM) | relative viability ([2]; first compound 0.1 µM) | relative viability ([3]; first compound 0.04 µM) | relative viability ([3]; first compound 0.1265 µM) | relative viability ([3]; first compound 0.4 µM) | relative viability ([3]; first compound 1.265 µM) | relative viability ([3]; first compound 4 µM) | relative viability ([4]; first compound 0.04 µM) | relative viability ([4]; first compound 0.1265 µM) | relative viability ([4]; first compound 0.4 µM) | relative viability ([4]; first compound 1.265 µM) | relative viability ([4]; first compound 4 µM)
NCI-H1792 | 0.715 | 0.894 | 0.587 | 0.309 | 0.255 | 0.652 | 0.609 | 0.529 | 0.541 | 0.186 | 0.445 | 0.275 | 0.707 | 0.262 | 0.175 | 0.432 | 0.359 | 0.477 | 0.257 | 0.193
COR-L 105 | 1.01 | 1.08 | 0.882 | 0.698 | 0.668 | 0.673 | 0.791 | 0.63 | 0.598 | 0.568 | 0.308 | 0.441 | 0.383 | 0.308 | 0.421 | 0.411 | 0.461 | 0.451 | 0.429 | 0.383
LU99A | 0.149 | 0.157 | 0.182 | 0.202 | 0.167 | 0.783 | 1.01 | 0.846 | 0.769 | 0.879 | 0.825 | 1 | 0.757 | 0.648 | 0.627 | 0.51 | 0.569 | 0.632 | 0.397 | 0.396
H3255 | 0.453 | 0.547 | 0.446 | 0.486 | 0.453 | 0.593 | 0.682 | 0.567 | 0.628 | 0.517 | – | 0.339 | 0.364 | 0.291 | 0.347 | – | 0.686 | 0.506 | 0.5 | 0.46
NCI-H1734 | 0.345 | 0.323 | 0.293 | 0.262 | 0.284 | 0.542 | 0.508 | 0.522 | 0.491 | 0.293 | 0.348 | 0.38 | 0.382 | 0.276 | 0.274 | 0.595 | 0.575 | 0.404 | 0.313 | 0.333
NCI-H650 | 0.686 | 0.588 | 0.382 | 0.273 | 0.266 | 0.362 | 0.314 | 0.285 | 0.323 | 0.28 | 0.432 | 0.408 | 0.321 | 0.346 | 0.291 | 0.717 | 0.561 | 0.418 | 0.319 | 0.259
CAL-12T | 1.07 | 1.04 | 0.599 | 0.609 | 0.36 | – | – | – | – | – | 0.517 | 0.633 | – | 0.372 | 0.339 | 0.303 | 0.361 | 0.217 | 0.265 | 0.294
NCI-H1623 | – | – | – | – | – | – | – | – | – | – | 0.539 | 0.507 | 0.5 | 0.492 | 0.462 | – | – | – | – | –
ABC-1 | – | – | – | – | – | 1.11 | 1.39 | 0.926 | 1.26 | 1.04 | 0.238 | 0.231 | 0.25 | 0.252 | 0.212 | – | – | – | – | –
NCI-H1563 | 0.791 | 0.899 | 1.43 | 0.751 | 0.858 | – | – | – | – | – | 0.631 | 0.75 | 0.764 | 0.658 | 0.74 | – | – | – | – | –

Reference: the supplement of paper PMC10307832
